According to patent EP4108244A1, “SS-LACTAM ANTIBIOTIC WITH SIGNIFICANT ACTIVITY AGAINST CANCER E.G. COLON MALIGNANCIES” (priority 2021, dated 2022):
Where “and” joins values, the source holds several entries; their conditions need not be identical. Identical values can stand only once. Marks after values point to notes of the source that are not given here.

Legend:
[1] = system: HCT-116 cells; assay: MTT metabolic activity assay; format: cell-based, human; conditions: for effect of combination with 5-FU on the inhibition of metabolic activity induced by 5-FU (in words): 5-FU 16 µM and 24 µM, MER, AMP, PIP 10, 50, 100 µg/mL, BenP, FLU 5, 25, 50 µg/mL
[2] = system: HCT-116 cells; assay: Cell cycle distribution, propidium iodide staining; format: cell-based, human; conditions: for percentage of cells in G0/G1 / percentage of cells in G2/M / percentage of cells in Pre G1 / percentage of cells in S: CFT 100 µg/mL, CFP 50 µg/mL, 5-FU 8 µM, alone or combined, mean ± SE
Experimental: Propidium iodide (PI) staining was used to evaluate the effect of the different treatments on the cell cycle. […] Fixed cells, which were washed with PBS and incubated at 37 °C for 1 h with 50 µl RNase (1 mg/ml) (Sigma Aldrich, Germany), were stained for 15 minutes with PI (Molecular Probes, Eugene, Oregon, USA).

[3] = system: DLD-1 cells; assay: Cell cycle distribution, propidium iodide staining; format: cell-based, human; conditions: CFT 100 µg/mL, CFP 50 µg/mL, 5-FU 16 µM, alone or combined, mean ± SE
Experimental: Propidium iodide (PI) staining was used to evaluate the effect of the different treatments on the cell cycle. […] 48 h and 72 h post-treatment, collected cells were fixed with ice-cold ethanol (70%) and stored at - 20 °C for at least 2 h. Fixed cells, which were washed with PBS and incubated at 37 °C for 1 h with 50 µl RNase (1 mg/ml) (Sigma Aldrich, Germany), were stained for 15 minutes with PI (Molecular Probes, Eugene, Oregon, USA). Cell cycle was monitored using BD FACSDiva™ and the percentage of cells in the different phases of the cell cycle (pre-Gi, G0/G1, S, and G2/M) phases was determined using BD FACSDiva™ Software.
Propidium iodide (PI) staining was used to evaluate the effect of the different treatments (Ceftazidime (100 µg/ml) or 5-Fluorouracil (16 µM)) on the cell cycle profile of DLD-1 cells. Briefly, DLD-1 cells were plated at 5^∗104/ml and treated for 48 h and 72 h. Collected cells were fixed with ice-cold ethanol (70%) and stored at -20°C for at least 2 h. Fixed cells, which were washed with PBS and incubated at 37°C for 1 h with 50 µl RNase (1 mg/ml) (Sigma Aldrich, Germany), were stained for 15 minutes with PI (Molecular Probes, Eugene, Oregon, USA). Cell cycle was monitored using BD FACSDiva™ and the percentage of cells in the different phases of the cell cycle (pre-Gi, G0/G1, S, and G2/M) phases was determined using BD FACSDiva™ Software.

[4] = system: HCT-116 cells; assay: Caspase-3/7 activity assay; format: cell-based, human; conditions: combined with 5-FU 8 µM, 48 and 72h, CFT 100 µg/ml, CFP 50 µg/ml
Experimental: (§1) Caspase-3/7 activity was measured 48 h and 72 h post-treatment according to the manufacturer's protocol (Caspase-Glo-3/7 Assay, Promega Corp, Madison, WI, USA). Briefly, equal volume from treated cells and caspase-3/7 mixture were incubated at room temperature for 3 h and the luminescence was measured by a microplate reader.

[5] = system: DLD-1 cells; assay: Antibiotics' uptake by the cells, LC-MS/MS; conditions: for Concentration of CFP, Lysate / Concentration of CFP, Supernatant: CFP 50 µg/ml alone or + 5-FU 16 µM
Experimental: (§2) This step was repeated three times and cell homogenate were vortexed at high-speed prior extraction. 40 µl from each supernatant and cell suspension were combined with 200 µl of internal standard working solution prepared in ice-cold methanol. Samples were then centrifuged and 100 µl of the supernatant were diluted with 400 µl water in glass vials prior analysis with LC-/MS/MS.

[6] = system: HCT-116 cells; assay: Antibiotics' uptake by the cells, LC-MS/MS; conditions: for Concentration of CFP, Lysate / Concentration of CFP, Supernatant: HCT-116 cells, CFP 50 µg/ml alone or + 5-FU 8 µM
Experimental: as §2

[7] = Stability in media, LC-MS/MS; format: physicochemical; conditions: antibiotic alone (CFP 50 µg/mL, CFT 100 µg/mL)
Experimental: B) CFT (100 µg/ml) ± 5-FU (8 µM and 16 µM). P value (a) (between antibiotic alone and 5-FU (8 µM)); P value (b) (between antibiotic alone and 5-FU (16 µM)), n = 3.

[8] = system: DLD-1 cells; assay: MTT metabolic activity assay; format: cell-based, human; conditions: 48 h post-treatment, 5-Fluorouracil 16µM
Experimental: MTT assay was used to assess the proliferation rate of HCT-116 and DLD-1 cells. In this assay the ability of metabolically active cells to convert tetrazolium salt into a blue formazan product is measured. The absorption of the dissolved formazan was quantified at 540 nm by an ELISA reader (Bio-Rad iMark Microplate Reader).
Cells were plated at 2^∗104cells/ml in 96-well plates and incubated overnight. […] Metabolic activity of the cells was studied using the MTT assay that measures the ability of metabolically active cells to convert tetrazolium salt into a blue formazan product, the absorbance of which is recorded at 540 nm by an ELISA reader (Bio-Rad iMark Microplate Reader).

[9] = system: Caco-2 cells; assay: MTT metabolic activity assay; format: cell-based, human; conditions: Homo sapiens, 24 h post-treatment, 5-Fluorouracil 4µM, read-out: inhibition of proliferation (metabolic activity)
Experimental: (§3) Cells were plated at 2^∗104cells/ml in 96-well plates and incubated overnight. The following day, cells were treated in triplicate with Ceftazdime or 5-fluorouracil for 24-48 h, depending on the cell line used. Metabolic activity of the cells was studied using the MTT assay that measures the ability of metabolically active cells to convert tetrazolium salt into a blue formazan product, the absorbance of which is recorded at 540 nm by an ELISA reader (Bio-Rad iMark Microplate Reader).

[10] = system: RAW 264.7 cells; assay: MTT metabolic activity assay on macrophages; format: cell-based, murine; conditions: RAW 264.7
Experimental: as §3

[11] = system: DLD-1 cells; assay: Caspase-3/7 activity assay; format: cell-based, human; conditions: 48 h and 72 h, 5-FU 16 µM, CFT 100 µg/ml
Experimental: as §1
as §1, with “DLD-1 cells were treated with CFT (100 µg/ml) or 5-Fluorouracil (16 µM). Caspase-3/7” for “Caspase-3/7”, “caspase 3/7” for “caspase-3/7”

## C[C@@H](O)[C@H]1C(=O)N2C(C(=O)O)=C(S[C@@H]3CN[C@H](C(=O)N(C)C)C3)[C@H](C)[C@H]12 [MER, meropenem]
[1]
  effect of combination with 5-FU on the inhibition of metabolic activity induced by 5-FU (in words): does not affect the inhibition

## CO/N=C(\C(=O)N[C@@H]1C(=O)N2C(C(=O)[O-])=C(C[N+]3(C)CCCC3)CS[C@H]12)c1csc(N)n1 [CFP, cefepime]
[1]; 48 h post-treatment, CFT 100 µg/mL, CFP 50 µg/mL combined with 5-FU
  effect on 5-FU's effect on metabolic activity (in words): antagonized 5-FU's effect
[2]; 48 h
  percentage of cells in G0/G1: 51.7 ± 2.8%
  percentage of cells in G2/M: 24.6 ± 0.9%
  percentage of cells in Pre G1: 4.9 ± 1.6%
  percentage of cells in S: 13.6 ± 1.6%
[2]; 72 h
  percentage of cells in G0/G1: 53.8 ± 3.6^(a) %
  percentage of cells in G2/M: 23.6 ± 2.2^(a) %
  percentage of cells in Pre G1: 9.8% and 9.3 ± 2.9^(a) %
  percentage of cells in S: 7.4 ± 1.4%
[3]; 48 h
  percentage of cells in G0/G1: 48.8 ± 4.0%
  percentage of cells in G2/M: 18.4 ± 4.3%
  percentage of cells in Pre G1: 2.6 ± 0.3%
  percentage of cells in S: 29.2 ± 8.1%
[3]; 72 h
  percentage of cells in G0/G1: 59.6 ± 3.6^(a) %
  percentage of cells in G2/M: 17.0 ± 3.5%
  percentage of cells in Pre G1: 9.5 ± 4.1^(a) %
  percentage of cells in S: 13.1 ± 3.3^(a) %
[4]
  effect on 5-FU-induced apoptosis (caspase 3/7, in words): effect was seen only 72h post-treatment
[5]; 2 h
  Concentration of CFP, Lysate: 0.012 ± 0.005
  Concentration of CFP, Supernatant: 50.000 ± 1.697
[5]; 4 h
  Concentration of CFP, Lysate: 0.010 ± 0.0002
  Concentration of CFP, Supernatant: 54.187 ± 0.849
[5]; 6 h
  Concentration of CFP, Lysate: 0.014 ± 0.0001
  Concentration of CFP, Supernatant: 45.813 ± 3.818
[5]; 8 h
  Concentration of CFP, Lysate: 0.012 ± 0.001
  Concentration of CFP, Supernatant: 47.947 ± 12.644
[5]; up to 8h
  average uptake by the cells: around 0.02%
[6]; 2 h
  Concentration of CFP, Lysate: 0.018 ± 0.004
  Concentration of CFP, Supernatant: 44.1 and 44.100 ± 3.395
[6]; 4 h
  Concentration of CFP, Lysate: 0.022 ± 0.005
  Concentration of CFP, Supernatant: 34.500 ± 3.818
[6]; 6 h
  Concentration of CFP, Lysate: 0.050 ± 0.003
  Concentration of CFP, Supernatant: 35.250 ± 1.485
[6]; 8 h
  Concentration of CFP, Lysate: 0.032 ± 0.002
  Concentration of CFP, Supernatant: 35.9 and 35.850 ± 1.909
[6]; up to 8h
  average uptake in HCT-116 cells compared to DLD-1 cells: 2 folds
[7]; 2h in media
  Stability test, level in media: 49.9 ± 9.5
[7]; 8h in media
  Stability test, level in media: 48.8 ± 5.3

## Cc1onc(-c2c(F)cccc2Cl)c1C(=O)N[C@@H]1C(=O)N2[C@@H]1SC(C)(C)[C@@H]2C(=O)O [FLU, flucloxacillin]
[1]
  effect of combination with 5-FU on the inhibition of metabolic activity induced by 5-FU (in words): does not affect the inhibition

## CC1(C)S[C@@H]2[C@H](NC(=O)[C@H](N)c3ccccc3)C(=O)N2[C@H]1C(=O)O [AMP, ampicillin]
[1]
  effect of combination with 5-FU on the inhibition of metabolic activity induced by 5-FU (in words): does not affect the inhibition

## CC1(C)S[C@@H]2[C@H](NC(=O)Cc3ccccc3)C(=O)N2[C@H]1C(=O)O [BenP, benzylpenicillin]
[1]
  effect of combination with 5-FU on the inhibition of metabolic activity induced by 5-FU (in words): does not affect the inhibition

## CCN1CCN(C(=O)N[C@@H](C(=O)N[C@@H]2C(=O)N3[C@@H]2SC(C)(C)[C@@H]3C(=O)O)c2ccccc2)C(=O)C1=O [PIP, piperacillin]
[1]
  effect of combination with 5-FU on the inhibition of metabolic activity induced by 5-FU (in words): does not affect the inhibition

## O=c1[nH]cc(F)c(=O)[nH]1 [5-FU, 5-fluorouracil]
[8]
  inhibitory effect vs. control untreated cells (metabolic activity): 18%
[9]
  inhibition at 4 µM: 22%
[10]; 24 h of treatment
  decrease of metabolic activity: 80%
[10]; 48 h post-treatment
  metabolic activity of macrophages (in words): sustained up to 48 h
[2]; 48 h
  increase in the percentage of cells in the pre-G1 phase vs. control: 3 fold
  percentage of cells in G0/G1: 48.4 ± 2.3^(a) %
  percentage of cells in G2/M: 22.3 ± 2.9%
  percentage of cells in Pre G1: 16.9 ± 2.5^(a) %
  percentage of cells in S: 10.6 ± 1.0%
[2]; 72 h
  increase in the percentage of cells in the pre-G1 phase vs. control: 8.2 fold
  percentage of cells in G0/G1: 39.0 ± 9.5^(a) %
  percentage of cells in G2/M: 16.4 ± 2.4^(a) %
  percentage of cells in Pre G1: 36.7 ± 11.7^(a) %
  percentage of cells in S: 6.6 ± 0.7%
[3]; 48 h
  percentage of cells in G0/G1: 49.3 ± 4.4%
  percentage of cells in G2/M: 10.3 ± 1.7^(a) %
  percentage of cells in Pre G1: 6.3 ± 2.3%
  percentage of cells in S: 32.0 ± 6.1^(a) %
[3]; 72 h
  percentage of cells in G0/G1: 69.4 ± 5.0%
  percentage of cells in G2/M: 5.4 ± 2.7^(a) %
  percentage of cells in Pre G1: 4.7 ± 0.3%
  percentage of cells in S: 20.1 ± 2.9^(a) %
[11]
  caspase 3/7 activity / apoptosis induction (in words): did not induce caspase 3/7 activity
